Laboratory results published in patent US7935366B2 (priority 2006, dated 2011).
Where two headings read alike, the source gives them in different places.

How the values were obtained:
[1] = assay type: in vivo; settings: stable iodine equivalent to 100 mg/70 Kg adult per day mixed with diet, 2 h post i.p. ^131I
[2] = assay type: in vivo; settings: 24 h post ip. ^131I; stable iodine given 2 h post ^131I
[3] = assay type: in vivo; settings: rats; 24 h post oral ^131I; stable iodide equivalent to 100 mg/70 Kg adult given orally 2 h post ^131I
[4] = assay type: in vivo; settings: stable iodine equivalent to 100 mg/70 Kg adult per day administered orally, 2 h post i.p. ^131I
[5] = experimental animals
[6] = Percent binding capacity of *Cs at different pH; assay type: physicochemical
[7] = Whole body retention of ^137Cs, CKF vs Prussian Blue; assay type: in vivo
[8] = tested on: rat bone marrow erythrocytes; assay type: in vivo; settings: FIG. 2
Text: […]. The geno-toxicity assessment of [CaK2Fe(CN)6] and Prussian Blue for the formation of micronuclei (i.e. part of parent nucleus, which is left behind in the cytoplasm as a daughter nuclei, due to damage to chromosomes during cell division).

[9] = some subjects; cited from earlier work
DNA damage = settings: FIG. 3

[K+].[O-][I+2]([O-])[O-] [KIO3]
WHOLE BODY RETENTION OF RADIO-IODINE ([1]; day 1): 28 ± 3 | WHOLE BODY RETENTION OF RADIO-IODINE ([1]; day 2): 12 ± 2 | WHOLE BODY RETENTION OF RADIO-IODINE ([1]; day 3): 10 ± 4 | WHOLE BODY RETENTION OF RADIO-IODINE ([1]; day 4): 8 ± 2 | WHOLE BODY RETENTION OF RADIO-IODINE ([1]; day 5): 7 ± 3 | WHOLE BODY RETENTION OF RADIO-IODINE ([1]; day 6): 7 ± 1 | WHOLE BODY RETENTION OF RADIO-IODINE ([1]; day 7): 8 ± 2 | WHOLE BODY RETENTION OF RADIO-IODINE ([1]; day 9): 6 ± 3 | WHOLE BODY RETENTION OF RADIO-IODINE ([1]; day 10): 3 ± 4 | WHOLE BODY RETENTION OF RADIO-IODINE ([1]; day 11): 2 ± 1 | WHOLE BODY RETENTION OF RADIO-IODINE ([1]; day 13): 2 ± 2 | WHOLE BODY RETENTION OF RADIO-IODINE ([1]; day 14): 1 ± 1 | Percent ^131I WBR [2]: 40 ± 2% | Percent ^131I in BLOOD [2]: 1.6 ± 0.4% | Percent ^131I in CARCAS [2]: 17 ± 2% | Percent ^131I in EXCRETA [2]: 64 ± 5% | Percent ^131I in LIVER + GUT [2]: 16 ± 1% | Percent ^131I in THYROID [2]: 10 ± 1% | Percent ^131I WBR [3]: 14 ± 3 percent administered dose | Percent ^131I in BLOOD [3]: 0.6 ± 0.05 percent administered dose | Percent ^131I in CARCAS [3]: 8 ± 0.5 percent administered dose | Percent ^131I in EXCRETA [3]: 81 ± 1 percent administered dose | Percent ^131I in LIVER + GUT [3]: 7 ± 0.5 percent administered dose | Percent ^131I in THYROID [3]: 4 ± 0.5 percent administered dose | WHOLE BODY RETENTION OF RADIO-IODINE ([4]; day 1): 28 ± 4 | WHOLE BODY RETENTION OF RADIO-IODINE ([4]; day 2): 12 ± 2 | WHOLE BODY RETENTION OF RADIO-IODINE ([4]; day 3): 10 ± 3 | WHOLE BODY RETENTION OF RADIO-IODINE ([4]; day 4): 8 ± 1 | WHOLE BODY RETENTION OF RADIO-IODINE ([4]; day 5): 7 ± 2 | WHOLE BODY RETENTION OF RADIO-IODINE ([4]; day 6): 7 ± 4 | WHOLE BODY RETENTION OF RADIO-IODINE ([4]; day 7): 8 ± 2 | WHOLE BODY RETENTION OF RADIO-IODINE ([4]; day 9): 6 ± 2

[C-]#N.[C-]#N.[C-]#N.[C-]#N.[C-]#N.[C-]#N.[C-]#N.[C-]#N.[C-]#N.[C-]#N.[C-]#N.[C-]#N.[C-]#N.[C-]#N.[C-]#N.[C-]#N.[C-]#N.[C-]#N.[Fe+2].[Fe+2].[Fe+2].[Fe+3].[Fe+3].[Fe+3].[Fe+3] [PB, ferric hexa-cyanoferrate (II)]
gastro-intestinal and cardio-toxicity (histo-pathologic changes) [5]: induces gastro-intestinal and cardio-toxicity | binding with *Cs ([6]; FIG. 4, neutral pH): weaker binding | PERCENT BINDING CAPACITY of *Cs ([6]; pH 2): 27 ± 2% | PERCENT BINDING CAPACITY of *Cs ([6]; pH 3): 58 ± 0.7% | PERCENT BINDING CAPACITY of *Cs ([6]; pH 4): 75 ± 0.4% | PERCENT BINDING CAPACITY of *Cs ([6]; pH 5): 75 ± 0.3% | PERCENT BINDING CAPACITY of *Cs ([6]; pH 6): 67 ± 0.6% | PERCENT BINDING CAPACITY of *Cs ([6]; pH 7): 59 ± 0.9% | WHOLE BODY RETENTION - ^137Cs ([7]; day 0): 100 percent administered dose | WHOLE BODY RETENTION - ^137Cs ([7]; day 1): 61 ± 10 percent administered dose | WHOLE BODY RETENTION - ^137Cs ([7]; day 4): 31 ± 4 percent administered dose | WHOLE BODY RETENTION - ^137Cs ([7]; day 8): 21 ± 3 percent administered dose | WHOLE BODY RETENTION - ^137Cs ([7]; day 12): 15 ± 2 percent administered dose | WHOLE BODY RETENTION - ^137Cs ([7]; day 16): 11 ± 2 percent administered dose | WHOLE BODY RETENTION - ^137Cs ([7]; day 20): 7 ± 1 percent administered dose | WHOLE BODY RETENTION - ^137Cs ([7]; day 24): 6 ± 1 percent administered dose | WHOLE BODY RETENTION - ^137Cs ([7]; day 28): 5 ± 1 percent administered dose | speed of removing *Cs from in vivo system ([7]; experimental animals): slow | micronuclei formation, means±SE versus control ([8]; all the tested doses): not significantly different from control | geno-toxicity, micronuclei formation ([8]; dose of 5 mg/100 g BW (equivalent to 3.5 g/d/70 Kg adult)): did not induce any toxicity | geno-toxicity, micronuclei formation ([8]; five and ten times the dose of 5 mg/100 g BW): marginal increase in the formation of micronuclei | constipation [9]: induce constipation in some subjects | DNA damage in alkaline comet assay (DNA damage): do not induce any apparent DNA damage
